{"source": "ChEMBL document CHEMBL5385876", "about": "“Discovery of unglycosylated indolocarbazoles as ROCK2 isoform-selective inhibitors for the treatment of breast cancer metastasis” (Eur J Med Chem, 2023)", "key": {"[1]": {"target": "Mitogen-activated protein kinase kinase kinase 5 (Homo sapiens, UniProt Q99683)", "experiment": "Inhibition of ASK1 (unknown origin)"}, "[2]": {"target": "T1, Rho-associated protein kinase 2 (Homo sapiens, UniProt O75116)", "experiment": "Binding affinity to ROCK2 in human MDA-MB- 231 cells assessed as stabilization at 100 uM and 52 to 61 degreeC incubated for 5 mins by CETSA", "type": "cell-based"}, "[3]": {"experiment": "Oral bioavailability in ICR mouse at 20 mg/kg administered as single dose and measured for 8 hrs by LC-MS/MS analysis", "type": "ADME, organism-based", "details": "in vivo"}, "[4]": {"target": "Serine/threonine-protein kinase Chk1 (Homo sapiens) (UniProt O14757)", "experiment": "Inhibition of human recombinant CHK1 at 125 nM"}, "[5]": {"experiment": "Selectivity index, ratio of IC50 for PKCdelta (unknown origin) to IC50 for N-terminal His10-StrepII tagged human ROCK2 catalytic domain (1 to 553 residues) expressed in Sf9 insect cells"}, "[6]": {"experiment": "Half life in ICR mouse at 15 mg/kg, iv administered as single dose and measured for 8 hrs by LC-MS/MS analysis", "type": "ADME, organism-based", "details": "in vivo"}, "[7]": {"experiment": "Volume of distribution at steady state in ICR mouse at 15 mg/kg, iv administered as single dose and measured for 8 hrs by LC-MS/MS analysis", "type": "ADME, organism-based", "details": "in vivo, read-out: Vdss"}, "[8]": {"experiment": "Drug uptake in lung of ICR mouse at 15 mg/kg, iv administered as single dose and measured after 0.25 to 4 hrs by LC-MS/MS analysis", "type": "ADME, organism-based", "details": "in vivo, time 0.25-4 hrs"}, "[9]": {"target": "T1, Rho-associated protein kinase 2", "experiment": "Inhibition of N-terminal His10-StrepII tagged human ROCK2 catalytic domain (1 to 553 residues) expressed in Sf9 insect cells by HTRF assay"}, "[10]": {"target": "Protein kinase C delta type (Homo sapiens, UniProt Q05655)", "sequence (Q05655 whole entry)": "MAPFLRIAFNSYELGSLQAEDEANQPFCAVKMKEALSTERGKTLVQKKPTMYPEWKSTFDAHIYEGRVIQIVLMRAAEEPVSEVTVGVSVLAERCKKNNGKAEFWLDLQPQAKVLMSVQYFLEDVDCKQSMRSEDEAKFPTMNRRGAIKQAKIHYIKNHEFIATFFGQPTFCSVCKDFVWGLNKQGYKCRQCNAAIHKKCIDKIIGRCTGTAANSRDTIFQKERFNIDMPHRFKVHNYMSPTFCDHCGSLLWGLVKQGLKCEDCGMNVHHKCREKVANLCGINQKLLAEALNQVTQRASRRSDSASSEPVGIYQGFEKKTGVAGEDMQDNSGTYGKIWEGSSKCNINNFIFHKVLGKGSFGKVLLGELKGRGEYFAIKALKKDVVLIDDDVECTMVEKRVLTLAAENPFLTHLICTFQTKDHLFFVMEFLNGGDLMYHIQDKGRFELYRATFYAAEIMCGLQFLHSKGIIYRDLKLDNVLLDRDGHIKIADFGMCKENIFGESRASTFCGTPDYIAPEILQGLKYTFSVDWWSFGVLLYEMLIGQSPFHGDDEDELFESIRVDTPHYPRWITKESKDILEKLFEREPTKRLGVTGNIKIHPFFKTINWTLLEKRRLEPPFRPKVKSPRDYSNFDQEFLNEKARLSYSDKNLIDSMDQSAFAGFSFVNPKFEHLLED", "experiment": "Inhibition of PKCdelta (unknown origin)"}, "[11]": {"test_system": "SK-OV-3", "experiment": "Inhibition of cell migration in human SK-OV-3 cells at 1.25 to 10 uM incubated for 48 hrs by scratch wound healing assay", "type": "functional, cell-based", "details": "dose 1.25-10 µM"}, "[12]": {"target": "Serine/threonine-protein kinase PLK1 (Homo sapiens, UniProt P53350)", "sequence (P53350 whole entry)": "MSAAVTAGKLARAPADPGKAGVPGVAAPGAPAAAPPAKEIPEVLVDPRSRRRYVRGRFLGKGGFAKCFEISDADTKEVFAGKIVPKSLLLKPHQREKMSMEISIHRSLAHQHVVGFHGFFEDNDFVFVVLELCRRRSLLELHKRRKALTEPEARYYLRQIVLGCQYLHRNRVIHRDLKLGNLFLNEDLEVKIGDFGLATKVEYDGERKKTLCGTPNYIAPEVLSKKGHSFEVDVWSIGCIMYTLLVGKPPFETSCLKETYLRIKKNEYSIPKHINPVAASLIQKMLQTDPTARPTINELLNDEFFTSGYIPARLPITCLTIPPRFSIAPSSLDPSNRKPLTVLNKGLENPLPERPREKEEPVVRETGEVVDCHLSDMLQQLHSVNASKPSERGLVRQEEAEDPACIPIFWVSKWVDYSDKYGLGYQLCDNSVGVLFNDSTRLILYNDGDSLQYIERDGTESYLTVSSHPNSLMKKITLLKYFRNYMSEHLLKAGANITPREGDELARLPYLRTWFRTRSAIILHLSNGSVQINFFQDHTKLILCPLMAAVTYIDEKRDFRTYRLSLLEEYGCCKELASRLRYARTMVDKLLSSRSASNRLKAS", "experiment": "Inhibition of PLK1 (unknown origin)"}, "[13]": {"experiment": "AUC (0 to t) in ICR mouse at 15 mg/kg, iv administered as single dose and measured for 8 hrs by LC-MS/MS analysis", "type": "ADME, organism-based", "set-up": "time 8 hrs, dose 15 mg/kg, route iv", "details": "in vivo"}, "[14]": {"test_system": "MDA-MB-231", "experiment": "Inhibition of cell migration in human MDA-MB-231 cells incubated for 48 hrs by scratch wound healing assay", "type": "functional, cell-based", "details": "dose 1.25-10 µM"}, "[15]": {"experiment": "Clearance in ICR mouse at 15 mg/kg, iv administered as single dose and measured for 8 hrs by LC-MS/MS analysis", "type": "ADME, organism-based", "details": "in vivo"}, "[16]": {"test_system": "SK-OV-3", "experiment": "Antiproliferative activity against human SK-OV-3 cells assessed as suppression of cell growth incubated for 72 hrs by SRB assay", "type": "functional, cell-based", "details": "SK-OV-3, 72 h"}, "[17]": {"test_system": "MDA-MB-231", "experiment": "Upregulation of phosphorylated STAT6 protein expression in human MDA-MB-231 cells at 0.5 uM incubated for 24 hrs by Western blot analysis", "type": "functional, cell-based"}, "[18]": {"test_system": "MDA-MB-231", "experiment": "Antimetastatic activity against human MDA-MB-231 cells harboring Luc-mcherry xenografted in BALB/c nude mouse at 15 mg/kg, iv administered once a day for 45 days and measured on day 19,30 and 45 by bioluminescence imaging", "type": "functional, organism-based", "details": "time 45.0 day"}, "[19]": {"test_system": "MDA-MB-231", "experiment": "Antimetastatic activity in human MDA-MB-231 cells assessed as increase in nuclear scales at 5 uM incubated for 24 hrs by FITC-conjugated phalloidin staining based confocal microscopic analysis", "type": "functional, cell-based"}, "[20]": {"test_system": "Rho-associated protein kinase 2 (Homo sapiens), O75116 [D232A]", "sequence (O75116 whole entry D232A, the tested form may be a part)": "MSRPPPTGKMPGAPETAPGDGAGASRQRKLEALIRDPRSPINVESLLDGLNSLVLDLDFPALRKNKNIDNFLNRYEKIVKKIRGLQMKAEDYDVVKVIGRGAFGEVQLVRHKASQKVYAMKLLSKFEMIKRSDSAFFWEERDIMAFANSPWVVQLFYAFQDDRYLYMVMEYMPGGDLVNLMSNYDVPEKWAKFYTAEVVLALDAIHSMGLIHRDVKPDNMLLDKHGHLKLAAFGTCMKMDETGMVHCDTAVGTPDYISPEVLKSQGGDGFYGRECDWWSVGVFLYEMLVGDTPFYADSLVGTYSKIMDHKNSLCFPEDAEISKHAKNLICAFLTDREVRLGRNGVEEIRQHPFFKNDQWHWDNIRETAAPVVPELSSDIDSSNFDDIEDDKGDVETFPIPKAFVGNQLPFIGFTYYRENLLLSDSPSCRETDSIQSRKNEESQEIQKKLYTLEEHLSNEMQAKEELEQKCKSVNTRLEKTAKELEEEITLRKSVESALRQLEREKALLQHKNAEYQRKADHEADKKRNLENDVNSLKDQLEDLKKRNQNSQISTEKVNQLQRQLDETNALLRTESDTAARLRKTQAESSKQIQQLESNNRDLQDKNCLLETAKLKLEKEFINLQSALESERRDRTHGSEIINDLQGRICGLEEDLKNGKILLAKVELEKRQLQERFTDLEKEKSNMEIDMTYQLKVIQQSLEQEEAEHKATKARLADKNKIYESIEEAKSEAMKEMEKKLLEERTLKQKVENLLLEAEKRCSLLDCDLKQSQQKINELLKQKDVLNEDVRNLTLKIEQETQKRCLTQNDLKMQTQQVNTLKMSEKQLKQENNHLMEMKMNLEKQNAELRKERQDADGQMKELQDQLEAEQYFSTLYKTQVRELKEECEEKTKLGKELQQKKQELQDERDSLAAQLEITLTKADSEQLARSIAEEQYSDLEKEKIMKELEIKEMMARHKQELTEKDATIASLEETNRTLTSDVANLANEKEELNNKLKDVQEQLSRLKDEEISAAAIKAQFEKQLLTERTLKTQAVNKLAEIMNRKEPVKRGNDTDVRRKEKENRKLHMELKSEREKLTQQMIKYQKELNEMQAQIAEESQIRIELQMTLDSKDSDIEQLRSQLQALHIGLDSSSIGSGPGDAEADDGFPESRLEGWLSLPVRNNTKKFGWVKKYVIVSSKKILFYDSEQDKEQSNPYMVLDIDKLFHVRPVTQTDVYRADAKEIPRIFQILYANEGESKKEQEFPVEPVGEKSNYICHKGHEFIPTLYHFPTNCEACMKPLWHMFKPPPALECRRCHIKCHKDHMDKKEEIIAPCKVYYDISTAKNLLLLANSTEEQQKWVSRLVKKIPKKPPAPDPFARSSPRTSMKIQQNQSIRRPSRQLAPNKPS", "experiment": "Binding affinity to N-terminal His10-StrepII tagged human ROCK2 D232A mutant catalytic domain (1 to 553 residues) expressed in Sf9 insect cells assessed as change in melting temperature at 50 uM by SYPRO orange dye based thermal shift assay"}, "[21]": {"experiment": "Cmax in ICR mouse at 15 mg/kg, iv administered as single dose and measured for 8 hrs by LC-MS/MS analysis", "type": "ADME, organism-based", "set-up": "time 8 hrs, dose 15 mg/kg, route iv", "details": "in vivo"}, "[22]": {"test_system": "MDA-MB-231", "experiment": "Antimetastatic activity in human MDA-MB-231 cells assessed as effect on cell shapes at 5 uM incubated for 24 hrs by SEM analysis", "type": "functional, cell-based"}, "[23]": {"target": "Serine/threonine-protein kinase pim-1 (Homo sapiens, UniProt P11309)", "sequence (P11309 whole entry)": "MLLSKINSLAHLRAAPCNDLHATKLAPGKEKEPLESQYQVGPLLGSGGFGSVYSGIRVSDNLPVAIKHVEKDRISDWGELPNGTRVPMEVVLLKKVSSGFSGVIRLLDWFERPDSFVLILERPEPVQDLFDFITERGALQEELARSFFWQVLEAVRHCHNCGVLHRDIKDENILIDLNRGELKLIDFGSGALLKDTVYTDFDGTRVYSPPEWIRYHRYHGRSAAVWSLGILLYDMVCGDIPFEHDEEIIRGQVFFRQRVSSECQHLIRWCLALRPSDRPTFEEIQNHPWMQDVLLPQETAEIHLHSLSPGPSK", "experiment": "Inhibition of PIM1 (unknown origin)"}, "[24]": {"test_system": "MDA-MB-231", "experiment": "Inhibition of IL-6 stimulated phosphorylated STAT3 at Y705 residue expression in human MDA-MB-231 cells at 5 uM incubated for 24 hrs by Western blot analysis", "type": "functional, cell-based"}, "[25]": {"experiment": "Volume of distribution at terminal state in ICR mouse at 15 mg/kg, iv administered as single dose and measured for 8 hrs by LC-MS/MS analysis", "type": "ADME, organism-based", "details": "in vivo, read-out: Vz"}, "[26]": {"test_system": "Rho-associated protein kinase 2 (Homo sapiens), O75116 [K121A]", "sequence (O75116 whole entry K121A, the tested form may be a part)": "as the sequence (O75116 whole entry D232A, the tested form may be a part) above, with K121A, A232D counted along it", "experiment": "Binding affinity to N-terminal His10-StrepII tagged human ROCK2 K121A mutant catalytic domain (1 to 553 residues) expressed in Sf9 insect cells assessed as change in melting temperature at 50 uM by SYPRO orange dye based thermal shift assay"}, "[27]": {"target": "Inhibitor of nuclear factor kappa-B kinase subunit beta (Homo sapiens, UniProt O14920)", "sequence (O14920 whole entry)": "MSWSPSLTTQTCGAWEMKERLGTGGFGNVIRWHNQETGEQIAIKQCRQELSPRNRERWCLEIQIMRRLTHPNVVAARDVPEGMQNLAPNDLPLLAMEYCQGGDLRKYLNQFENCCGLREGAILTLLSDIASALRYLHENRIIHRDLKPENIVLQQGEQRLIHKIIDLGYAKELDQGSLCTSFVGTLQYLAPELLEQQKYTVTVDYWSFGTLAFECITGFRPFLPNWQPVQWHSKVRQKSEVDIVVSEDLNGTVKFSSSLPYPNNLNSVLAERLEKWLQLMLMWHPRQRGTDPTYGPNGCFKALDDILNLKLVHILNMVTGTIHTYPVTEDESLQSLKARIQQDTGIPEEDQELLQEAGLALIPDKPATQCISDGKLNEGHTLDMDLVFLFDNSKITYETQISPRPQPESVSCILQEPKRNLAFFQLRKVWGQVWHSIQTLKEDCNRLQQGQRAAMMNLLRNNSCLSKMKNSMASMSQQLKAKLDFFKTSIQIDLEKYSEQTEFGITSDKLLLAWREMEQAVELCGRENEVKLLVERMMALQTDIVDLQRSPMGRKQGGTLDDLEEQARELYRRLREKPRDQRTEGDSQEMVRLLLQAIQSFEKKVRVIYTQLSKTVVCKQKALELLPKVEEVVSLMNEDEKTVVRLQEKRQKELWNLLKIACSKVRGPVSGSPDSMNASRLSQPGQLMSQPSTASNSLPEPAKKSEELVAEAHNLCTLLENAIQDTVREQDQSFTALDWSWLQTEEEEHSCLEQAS", "experiment": "Inhibition of IKKbeta (unknown origin)"}, "[28]": {"test_system": "MDA-MB-231", "experiment": "Antiproliferative activity against human MDA-MB-231 cells assessed as suppression of cell growth incubated for 72 hrs by SRB assay", "type": "functional, cell-based", "details": "MDA-MB-231, 72 h"}, "[29]": {"target": "Ribosomal protein S6 kinase alpha-6 (Homo sapiens) (UniProt Q9UK32)", "experiment": "Inhibition of human recombinant RSK4 at 125 nM"}, "[30]": {"test_system": "Rho-associated protein kinase 2 (Homo sapiens), O75116 [E140A]", "sequence (O75116 whole entry E140A, the tested form may be a part)": "as the sequence (O75116 whole entry D232A, the tested form may be a part) above, with E140A, A232D counted along it", "experiment": "Binding affinity to N-terminal His10-StrepII tagged human ROCK2 E140A mutant catalytic domain (1 to 553 residues) expressed in Sf9 insect cells assessed as change in melting temperature at 50 uM by SYPRO orange dye based thermal shift assay"}, "[31]": {"target": "Signal transducer and activator of transcription 3 (Homo sapiens) (UniProt P40763)", "sequence (P40763 whole entry)": "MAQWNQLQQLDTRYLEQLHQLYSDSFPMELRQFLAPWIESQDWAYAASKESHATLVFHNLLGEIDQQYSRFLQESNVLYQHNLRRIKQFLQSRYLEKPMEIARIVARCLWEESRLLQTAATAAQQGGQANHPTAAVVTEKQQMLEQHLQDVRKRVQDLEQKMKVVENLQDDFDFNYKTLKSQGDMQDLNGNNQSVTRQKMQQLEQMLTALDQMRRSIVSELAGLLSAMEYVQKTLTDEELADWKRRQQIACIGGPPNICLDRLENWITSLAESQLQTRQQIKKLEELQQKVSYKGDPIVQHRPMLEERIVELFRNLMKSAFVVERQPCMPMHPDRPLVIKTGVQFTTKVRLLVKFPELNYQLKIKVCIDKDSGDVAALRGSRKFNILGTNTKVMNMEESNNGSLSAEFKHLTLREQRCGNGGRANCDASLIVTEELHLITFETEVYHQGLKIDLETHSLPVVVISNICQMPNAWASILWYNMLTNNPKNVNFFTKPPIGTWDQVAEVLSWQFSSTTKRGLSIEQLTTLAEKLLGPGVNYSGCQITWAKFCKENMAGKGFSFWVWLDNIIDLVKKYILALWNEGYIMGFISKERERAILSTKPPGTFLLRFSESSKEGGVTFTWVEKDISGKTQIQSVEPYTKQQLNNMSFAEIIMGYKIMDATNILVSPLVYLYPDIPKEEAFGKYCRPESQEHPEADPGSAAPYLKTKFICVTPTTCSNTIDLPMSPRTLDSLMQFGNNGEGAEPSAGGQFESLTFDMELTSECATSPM", "experiment": "Inhibition of STAT3 activation in human MDA-MB-231 cells assessed as reduction in phosphorylated STAT3 nuclear translocation at 5 uM incubated for 24 hrs by immunofluorescence analysis", "type": "cell-based"}, "[32]": {"target": "Signal transducer and activator of transcription 3 (Homo sapiens) (UniProt P40763)", "experiment": "Inhibition of STAT3 activation in human MDA-MB-231 cells assessed as reduction in STAT3 phosphorylation at Y705 residue at 1.25 to 10 uM incubated for 24 hrs by Western blot analysis", "type": "cell-based", "details": "dose 1.25-10 µM"}, "[33]": {"test_system": "MDA-MB-231", "experiment": "Upregulation of phosphorylated STAT5A protein expression in human MDA-MB-231 cells at 0.5 uM incubated for 24 hrs by Western blot analysis", "type": "functional, cell-based"}, "[34]": {"experiment": "AUC (0 to infinity) in ICR mouse at 15 mg/kg, iv administered as single dose and measured for 8 hrs by LC-MS/MS analysis", "type": "ADME, organism-based", "set-up": "time 8 hrs, dose 15 mg/kg, route iv", "details": "in vivo"}, "[35]": {"test_system": "Rho-associated protein kinase 2 (Homo sapiens), O75116 [M87A]", "sequence (O75116 whole entry M87A, the tested form may be a part)": "as the sequence (O75116 whole entry D232A, the tested form may be a part) above, with M87A, A232D counted along it", "experiment": "Binding affinity to N-terminal His10-StrepII tagged human ROCK2 M87A mutant catalytic domain (1 to 553 residues) expressed in Sf9 insect cells assessed as change in melting temperature at 50 uM by SYPRO orange dye based thermal shift assay"}}, "note": "Activity calls are given as the source filed them. The rule behind the calls is not given here."}
{"smiles": "O=C1NCc2c1c1c3cc(O)ccc3[nH]c1c1[nH]c3ccccc3c21", "values": [{"measurement": "IC50", "setting": "[1]", "result": 944, "unit": "nM"}, {"measurement": "Activity", "setting": "[2]", "result": "Active"}, {"measurement": "bioavailability", "setting": "[3]", "result": "< 1", "unit": "%"}, {"measurement": "inhibition", "setting": "[4]", "result": "Active"}, {"measurement": "Ratio IC50", "setting": "[5]", "result": "> 10"}, {"measurement": "half-life", "setting": "[6]", "result": 1.51, "unit": "h"}, {"measurement": "Vd", "setting": "[7]", "result": 0.32, "unit": "L/kg"}, {"measurement": "Drug uptake", "setting": "[8]", "result": "Active"}, {"measurement": "IC50", "setting": "[9]", "result": 6, "unit": "nM"}, {"measurement": "IC50", "setting": "[10]", "result": 60.7, "unit": "nM"}, {"measurement": "inhibition", "setting": "[11]", "result": "Active"}, {"measurement": "IC50", "setting": "[12]", "result": "> 10000", "unit": "nM"}, {"measurement": "AUC(0-t) at 8 h", "setting": "[13]", "result": 6240, "unit": "ng·h/mL"}, {"measurement": "inhibition", "setting": "[14]", "result": "Dose-Dependent Effect"}, {"measurement": "clearance", "setting": "[15]", "result": 29.3, "unit": "mL/min/kg"}, {"measurement": "IC50", "setting": "[16]", "result": 4440, "unit": "nM"}, {"measurement": "Activity", "setting": "[17]", "result": "Active"}, {"measurement": "Activity", "setting": "[18]", "result": "Active"}, {"measurement": "Activity", "setting": "[19]", "result": "Active"}, {"measurement": "Activity", "setting": "[20]", "result": "inactive"}, {"measurement": "Cmax", "setting": "[21]", "result": 21600, "unit": "ng/mL"}, {"measurement": "Activity", "setting": "[22]", "result": "Active"}, {"measurement": "IC50", "setting": "[23]", "result": 308, "unit": "nM"}, {"measurement": "inhibition", "setting": "[24]", "result": "Active"}, {"measurement": "Vd", "setting": "[25]", "result": 4.87, "unit": "L/kg"}, {"measurement": "Activity", "setting": "[26]", "result": "inactive"}, {"measurement": "IC50", "setting": "[27]", "result": 139, "unit": "nM"}, {"measurement": "IC50", "setting": "[28]", "result": 7190, "unit": "nM"}, {"measurement": "inhibition", "setting": "[29]", "result": "Active"}, {"measurement": "Activity", "setting": "[30]", "result": "inactive"}, {"measurement": "inhibition", "setting": "[31]", "result": "Active"}, {"measurement": "inhibition", "setting": "[32]", "result": "Active"}, {"measurement": "Activity", "setting": "[33]", "result": "Active"}, {"measurement": "AUC(0-inf)", "setting": "[34]", "result": 6250, "unit": "ng·h/mL"}, {"measurement": "Activity", "setting": "[35]", "result": "inactive"}]}
